Experiments:
[1] = Population PK model simulation of Compound A dosing regimens (one-compartment, first-order absorption, lag time); set-up: species or system human
Procedure: The rationale for these doses is based on PK data from 53 patients treated in Arm A (no strong cytochrome P450 CYP3A4 inhibitor) and Arm B (with a strong CYP3A4 inhibitor) of Study Compound A which were analyzed with a preliminary population PK model. The model was a one-compartment PK model with first-order absorption (ka) and lag time (Tlag) that described the individual PK data. The data confirmed the expected effect of a strong CYP3A4 inhibitor comedication in Arm B on the drug elimination rate (k) and apparent volume of distribution (Vz/F).
The starting dose of 163 mg TID of Compound A alone was selected because it provides Cmax, Cmin, as shown in FIGS. 2A-B, and AUC0-24 approximately half that of 163 mg q12 h with a strong CYP3A4 inhibitor, as shown in FIG. 2C; the lower exposure provides a margin of safety in case CRC patients are more sensitive to the effects of Compound A than acute myeloid leukemia patients. The dose of 276 mg TID is expected to show exposure similar to that for 163 mg q12 h with a strong CYP3A inhibitor based on 3 key PK parameters (Cmax, Cmin, and AUC0-24), as shown in FIGS. 2A-C and Table 3A.

>125 molecular targets = test: Off-target screening assays
rats = test: GLP 28-day rat toxicology study; assay type: in vivo
dogs = test: GLP 28-day dog toxicology study / QTc in dogs; assay type: in vivo

Compound: CCN(C(=O)c1cc(F)ccc1Oc1cncnc1N1CC2(CCN(C[C@H]3CC[C@H](NS(=O)(=O)CC)CC3)CC2)C1)C(C)C [Compound A]
- Cmax, Cmin and AUC0-24 relative to 163 mg q12 h with a strong CYP3A4 inhibitor ([1]; 163 mg TID of Compound A alone): approximately half
- Exposure (Cmax, Cmin, AUC0-24) compared with 163 mg q12 h with a strong CYP3A inhibitor ([1]; 276 mg TID without CYP3A4 inhibitor): similar
- Cross-reactivity in off-target screening (>125 molecular targets): no cross-reactivity
- Potential main targeted organs of toxicity (other) (rats; 28-day rat and dog toxicology studies, rat): liver, bone marrow, lymphoid tissues, male reproductive system, and female reproductive system
- Potential main targeted organ of toxicity: eyes (rats; 28-day rat toxicology study): cataracts in rats only
- Potential main targeted organ of toxicity: heart (dogs; 28-day dog toxicology study): electrocardiogram [ECG] changes in dogs
- Potential main targeted organs of toxicity (other) (dogs; 28-day rat and dog toxicology studies, dog): liver, bone marrow, lymphoid tissues, male reproductive system, and female reproductive system
- QTc finding in dogs (dogs; dogs treated with Compound A): Prolonged QTc

Source: patent US20250295661A1, “MENIN-MLL INHIBITORS FOR THE TREATMENT OF CANCER” (Syndax Pharmaceuticals, Inc., priority 2022, published 2025)
